The values below are quoted from earlier work in patent publication US20230310417A1, “INJECTABLE ARIPIPRAZOLE FORMULATION” (CIPLA LIMITED, priority 2020, published 2023).

The structures appear in SMILES notation.

For this data set the following is noted: room temperature.

Usually aqueous solubility stands for how much of the substance goes into solution per volume. Regarding `O=C1CCc2ccc(OCCCCN3CCN(c4cccc(Cl)c4Cl)CC3)cc2N1` [Aripiprazole], the aqueous solubility is below 1 µg/mL.
